Measured values: patent publication US6630135B1, “Use of sustained release antibiotic compositions in ophthalmic surgical procedures” (Alcon Laboratories, Inc., priority 1993, dated 2003)
Converted amounts (≈) assume the structure as drawn. Read-outs that look alike come from different tables or passages of the source.

Legend:
[1] = test system: Pseudomonas aeruginosa (i.e., Strain 4N3422); assay: Minimum inhibitory concentration against Pseudomonas aeruginosa Strain 4N3422; type: cell-based
Source text: The concentration of antibiotic utilized in the compositions of the present invention will vary depending on the intended use of the compositions (i.e., sterilization of the surgical field or prevention of post-surgical infections), and the relative antimicrobial activity of the specific antibiotic selected. The antimicrobial activity of antibiotics is generally expressed as the minimum concentration required to inhibit the growth of a specified pathogen. The concentration is also referred to as the “minimum inhibitory concentration” or “MIC”. The term “MIC90” refers to the minimum concentration of antibiotic required to inhibit the growth of ninety percent (90%) of a population of multiple strains of a microorganism. The concentration of an antibiotic required to totally kill a specified population of bacteria or other pathogens is referred to as the “minimum bactericidal concentration” or “MBC”. The minimum inhibitory concentrations of some of the preferred antibiotics of the present invention, relative to a specific strain of Pseudomonas aeruginosa (i.e., Strain 4N3422), are presented in the following table: […]

[2] = test system: Staph. aureus; assay: MIC90 against multiple strains of Staph. aureus; type: cell-based
Source text: (§1) The concentration of antibiotic utilized in the compositions of the present invention will vary depending on the intended use of the compositions (i.e., sterilization of the surgical field or prevention of post-surgical infections), and the relative antimicrobial activity of the specific antibiotic selected. The antimicrobial activity of antibiotics is generally expressed as the minimum concentration required to inhibit the growth of a specified pathogen. The concentration is also referred to as the “minimum inhibitory concentration” or “MIC”. The term “MIC90” refers to the minimum concentration of antibiotic required to inhibit the growth of ninety percent (90%) of a population of multiple strains of a microorganism. The concentration of an antibiotic required to totally kill a specified population of bacteria or other pathogens is referred to as the “minimum bactericidal concentration” or “MBC”. The activity of antibiotics against Pseudomonas aeruginosa is particularly important in the present invention, because ophthalmic infections involving Pseudomonas aeruginosa represent an extremely serious condition which may ultimately result in the loss of the affected eye.

[3] = test system: Staph. epidermidis; assay: MIC90 against Staph. epidermidis; type: cell-based
Source text: as §1

[4] = test system: Hemo. influenzae; assay: MIC90 against Hemo. influenzae; type: cell-based
Source text: as §1

[5] = test system: Strep. pneumoniae; assay: MIC90 against Strep. pneumoniae; type: cell-based
Source text: as §1

[6] = test system: P. aeruginosa; assay: MIC90 against multiple strains of P. aeruginosa; type: cell-based
Source text: as §1

[7] = Ocular tissue drug concentration after topical dosing of rabbit eyes (HPLC); type: in vivo; settings: New Zealand albino, 30 microliters, normal eyes, after 30 minutes
Procedure: The following formulations were tested: The route of administration was topical. The rabbits received 30 microliters of either the gel or solution formulations in both eyes. At the end of the study, the aqueous humor and cornea were collected and assayed by high performance liquid chromatography to determine the amount of drug present.

[8] = humans, one hour after administration, cited from earlier work
[9] = rabbits, subconjunctival injection; cited from earlier work
[10] = Staphylococcus aureus, read-out: MIC 90
[11] = Staphylococcus epidermidis, read-out: MIC 90
[12] = Haemophilus influenzae, read-out: MIC 90
[13] = Streptococcus pneumoniae, read-out: MIC 90
[14] = Pseudomonas aeruginosa, read-out: MIC 90

Work on NCC[C@H](O)C(=O)N[C@@H]1C[C@H](N)[C@@H](O[C@H]2O[C@H](CN)[C@@H](O)[C@H](O)[C@H]2O)[C@H](O)[C@H]1O[C@H]1O[C@H](CO)[C@@H](O)[C@H](N)[C@H]1O [Amikacin] yielded an MIC ([1]; read-out: MIC) of 8 µg/mL (≈ 13.7 µM).
For CO/N=C(\C(=O)N[C@@H]1C(=O)N2C(C(=O)O)=C(COC(C)=O)CS[C@H]12)c1csc(N)n1 [Cefotaxime], the MIC ([1]; read-out: MIC) was 32 µg/mL (≈ 70.3 µM).
With CO[C@@]1(NC(=O)Cc2cccs2)C(=O)N2C(C(=O)O)=C(COC(N)=O)CS[C@@H]21 [Cefoxitin] the MIC ([1]; read-out: MIC) was > 32 µg/mL.
In the case of CC(C)(O/N=C(\C(=O)N[C@@H]1C(=O)N2C(C(=O)[O-])=C(C[n+]3ccccc3)CS[C@H]12)c1csc(N)n1)C(=O)O [Ceftazidime], the MIC ([1]; read-out: MIC) is reported as 1 µg/mL (≈ 1.83 µM).
For O=C(O)c1cn(C2CC2)c2cc(N3CCNCC3)c(F)cc2c1=O [Ciprofloxacin], the MIC ([1]; read-out: MIC) was < 0.125 µg/mL, the MIC90 [2, 10] was 0.5 µg/mL (≈ 1.51 µM) and the MIC90 [3, 11] was 0.4 µg/mL (≈ 1.21 µM). For the same compound, the MIC90 [4, 12] was 0.015 µg/mL (≈ 0.0453 µM), the MIC90 [5, 13] was 2 µg/mL (≈ 6.04 µM) and the MIC90 [6, 14] was 0.5 µg/mL (≈ 1.51 µM). For the same compound, the concentration at 30 min ([7]; aqueous humor, read-out: drug levels in aqueous humor) was 280 ng/g, the concentration at 30 min ([7]; cornea, read-out: drug levels in cornea) was 10600 ng/g and the “maximum aqueous humor concentration” value ([8]; IV injection (200 mg)) was 0.16 µg/mL. The “maximum aqueous humor concentration” value ([8]; oral dosage (1 g)) was 0.33 µg/mL.
In the case of C[C@@H](O)[C@H]1C(=O)N2C(C(=O)O)=C(SCCN=CN)C[C@H]12 [Imipenem], the MIC ([1]; read-out: MIC) is reported as 1 µg/mL (≈ 3.34 µM).
With CCn1cc(C(=O)O)c(=O)c2cc(F)c(N3CCNCC3)cc21 [Norfloxacin] the MIC ([1]; read-out: MIC) was < 0.5 µg/mL.
In the case of CCN1CCN(C(=O)N[C@@H](C(=O)N[C@@H]2C(=O)N3[C@@H]2SC(C)(C)[C@@H]3C(=O)O)c2ccccc2)C(=O)C1=O [Piperacillin], the MIC ([1]; read-out: MIC) is reported as < 8 µg/mL.
CC1(C)S[C@@H]2[C@H](NC(=O)[C@H](C(=O)O)c3ccsc3)C(=O)N2[C@H]1C(=O)O [Ticarcillin] gave an MIC ([1]; read-out: MIC) of 32 µg/mL (≈ 83.2 µM).
In the case of NC[C@H]1O[C@H](O[C@H]2[C@H](O)[C@@H](O[C@H]3O[C@H](CO)[C@@H](O)[C@H](N)[C@H]3O)[C@H](N)C[C@@H]2N)[C@H](N)C[C@@H]1O [Tobramycin], the MIC ([1]; read-out: MIC) is reported as > 8 µg/mL, the MIC90 [2, 10] is reported as 6.3 µg/mL (≈ 13.5 µM) and the MIC90 [3, 11] is reported as 56 µg/mL (≈ 120 µM). The MIC90 [4, 12] was 13.4 µg/mL (≈ 28.7 µM), the MIC90 [5, 13] was 34.5 µg/mL (≈ 73.8 µM) and the MIC90 [6, 14] was 20 µg/mL (≈ 42.8 µM).
In the case of Gentamicin, the MIC [1] is reported as >8 µg/mL, the “MIC90” value [2] is reported as 12.5 µg/mL and the “MIC90” value [3] is reported as 12.5 µg/mL. For the same compound, the “MIC90” value [4] was 0.8 µg/mL, the “MIC90” value [5] was 50.0 µg/mL and the “MIC90” value [6] was 8.0 µg/mL. The “maximum concentration attained in the aqueous humor” value [9] was 8.8 µg/g.
